Assay [1] deals with Kv1.3 potassium channel (transiently transfected into HEK293 cells).
For assay [2] the target is unchanged. The assay can be described thus: cell-based or functional assay.
For assay [3], the target named is T1, Kv1.3 (Homo sapiens, UniProt P22001).
The test system of assay [4] is K+ channels in PC12 cells.
The target of assay [5] is T1, Kv1.3. The assay can be described thus: cell-based.

The values that follow come from patent US20090291104A1 (Florida Atlantic University, priority 2005, published 2009).

pKd: −log10 of the molar value. Bridge positions count the residues as written; N and C are the ends. Peptide text beside a SMILES is read from it.

By pKd is commonly meant the Kd on a negative log10 scale, so that one unit is a factor of ten. A higher pKd goes with a low Kd.

T1 sequence (P22001 whole entry): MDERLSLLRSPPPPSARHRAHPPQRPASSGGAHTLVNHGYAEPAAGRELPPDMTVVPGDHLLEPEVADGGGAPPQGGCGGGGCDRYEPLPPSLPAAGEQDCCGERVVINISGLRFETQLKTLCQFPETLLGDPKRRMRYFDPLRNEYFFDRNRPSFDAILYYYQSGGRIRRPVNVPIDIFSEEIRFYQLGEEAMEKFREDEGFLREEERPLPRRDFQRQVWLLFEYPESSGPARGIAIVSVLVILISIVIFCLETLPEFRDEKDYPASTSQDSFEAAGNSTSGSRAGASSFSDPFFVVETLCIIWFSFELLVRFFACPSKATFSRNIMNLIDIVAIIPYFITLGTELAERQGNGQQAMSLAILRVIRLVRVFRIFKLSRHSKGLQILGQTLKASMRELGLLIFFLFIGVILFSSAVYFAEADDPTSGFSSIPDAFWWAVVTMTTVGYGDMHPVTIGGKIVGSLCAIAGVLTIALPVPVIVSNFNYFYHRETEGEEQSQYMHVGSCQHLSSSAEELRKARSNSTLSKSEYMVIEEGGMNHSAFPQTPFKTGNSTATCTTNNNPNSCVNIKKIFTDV

Turning to “vil14a conotoxin (framework 14 conotoxin from Conus villepinii) (peptide)”, the pKd in assay [1] is 4.81. Moreover, the reduction of Kv1.3 K+ currents (whole-cell voltage clamp, HEK293) in assay [2] was 39%.

Take `CC[C@H](C)[C@@H]1NC(=O)[C@@H](NC(=O)[C@H](CCCNC(=N)N)NC(=O)CNC(=O)[C@H](CC(C)C)NC(=O)CNC(=O)CN)CSSC[C@@H](C(=O)N[C@@H](Cc2ccc(O)cc2)C(=O)O)NC(=O)[C@H](CCSC)NC(=O)[C@H]([C@@H](C)O)NC(=O)[C@H](CCCCN)NC(=O)[C@@H]2CSSC[C@H](NC(=O)[C@H](CC(N)=O)NC(=O)[C@H](Cc3ccc(O)cc3)NC1=O)C(=O)N[C@@H](CCSC)C(=O)N[C@@H](CC(N)=O)C(=O)N[C@@H](CO)C(=O)NCC(=O)NCC(=O)NCC(=O)N[C@@H](CC(C)C)C(=O)N[C@@H](CO)C(=O)N[C@@H](Cc1ccccc1)C(=O)N[C@@H]([C@@H](C)CC)C(=O)N[C@@H](CCC(N)=O)C(=O)N2` [vil14a] (H-GGLGRCIYNCMNSGGGLSFIQCKTMCY-OH; disulfide 6-26, 10-22): at Kv1.3 [3], the “V50 of steady-state activation curve (Boltzmann fit)” value is listed as “+9 mV”, the “V50 of steady-state current-voltage relationship” value stood at 19 mV, the “V50 of steady-state current-voltage relationship after washing the toxin” value is recorded as −4.4 mV and the “reduction of Kv1.3 currents” value is recorded as “≈ 39%”. In addition, at Kv1.3 [3], the reversibility of block result is listed as “reversible” and the “voltage dependence of reduction in K+ current” value was “voltage dependent”. Also, the “block of K+ channels” value in assay [4] was “blocks K^+ channels”. The compound also had a pKd on Kv1.3 [5] of 4.81.
